By pIC50 is commonly meant the negative decadic logarithm of the IC50, by convention in mol/L.

The values below come from US12590091B2, “1H-pyrrolo[3,2-C]pyridine and 1H-pyrrolo[2,3-C]pyridine derivatives as TLR9 inhibitors for the treatment of fibrosis” (BRISTOL-MYERS SQUIBB COMPANY, priority 2020, dated 2026).

The target in experiment [1] is T1, human TLR9 (Homo sapiens, UniProt Q9NR96).
T1 construct: host or cells: HEK-Blue cells
T1 sequence (Q9NR96 26-1032): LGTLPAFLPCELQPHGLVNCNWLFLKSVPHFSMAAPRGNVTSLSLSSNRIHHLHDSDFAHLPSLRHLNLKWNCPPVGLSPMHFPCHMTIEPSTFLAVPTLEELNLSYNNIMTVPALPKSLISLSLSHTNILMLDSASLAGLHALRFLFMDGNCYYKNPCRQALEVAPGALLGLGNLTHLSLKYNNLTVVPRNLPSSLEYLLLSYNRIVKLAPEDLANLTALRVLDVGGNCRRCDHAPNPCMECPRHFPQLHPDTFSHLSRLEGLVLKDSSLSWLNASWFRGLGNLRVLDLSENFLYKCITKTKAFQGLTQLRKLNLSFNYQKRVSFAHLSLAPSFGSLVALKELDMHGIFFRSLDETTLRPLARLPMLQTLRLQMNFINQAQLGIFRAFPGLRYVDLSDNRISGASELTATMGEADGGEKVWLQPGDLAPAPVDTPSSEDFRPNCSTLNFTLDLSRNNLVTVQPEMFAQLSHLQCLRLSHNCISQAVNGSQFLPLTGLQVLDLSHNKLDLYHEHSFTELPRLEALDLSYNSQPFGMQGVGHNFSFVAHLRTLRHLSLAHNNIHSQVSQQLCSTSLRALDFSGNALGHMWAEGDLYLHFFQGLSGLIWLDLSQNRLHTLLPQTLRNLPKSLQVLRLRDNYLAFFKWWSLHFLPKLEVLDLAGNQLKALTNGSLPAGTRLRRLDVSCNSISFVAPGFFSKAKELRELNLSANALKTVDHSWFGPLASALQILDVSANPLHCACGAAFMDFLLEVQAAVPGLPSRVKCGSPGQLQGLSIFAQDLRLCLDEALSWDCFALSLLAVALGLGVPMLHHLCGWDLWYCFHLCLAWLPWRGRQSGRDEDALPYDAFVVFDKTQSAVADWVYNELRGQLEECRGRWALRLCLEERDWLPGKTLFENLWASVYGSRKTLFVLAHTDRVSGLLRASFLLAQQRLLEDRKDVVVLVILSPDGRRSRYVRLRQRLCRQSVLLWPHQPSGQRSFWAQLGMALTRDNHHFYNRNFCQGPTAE
Nature of the experiment: TLR9 inhibition reporter assay (HEK-Blue cells, SEAP reporter). Particulars: HEK-Blue cells overexpressing human TLR9, stimulated with ODN2006 5 nM, 22 hour incubation. In kind it is cell-based. The procedure, abridged: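 HEK-Blue cells overexpressing human TLR9 (25,000 cells/well), NF-κB/AP-1-driven SEAP reporter. Compounds at 0.05 nM–50 μM final, 22 h at 37 °C, 5% CO2 with agonist. SEAP detected with HEK-Blue Detection medium; % inhibition versus agonist plus DMSO and known-inhibitor wells.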
In general terms: Reporter assays use an easily measured gene product as a stand-in for the process of interest.

The target of experiment [2] is T2, human TLR8 (Homo sapiens, UniProt Q9NR97).
T2 construct: host or cells: HEK-Blue cells
T2 sequence (Q9NR97 27-1041): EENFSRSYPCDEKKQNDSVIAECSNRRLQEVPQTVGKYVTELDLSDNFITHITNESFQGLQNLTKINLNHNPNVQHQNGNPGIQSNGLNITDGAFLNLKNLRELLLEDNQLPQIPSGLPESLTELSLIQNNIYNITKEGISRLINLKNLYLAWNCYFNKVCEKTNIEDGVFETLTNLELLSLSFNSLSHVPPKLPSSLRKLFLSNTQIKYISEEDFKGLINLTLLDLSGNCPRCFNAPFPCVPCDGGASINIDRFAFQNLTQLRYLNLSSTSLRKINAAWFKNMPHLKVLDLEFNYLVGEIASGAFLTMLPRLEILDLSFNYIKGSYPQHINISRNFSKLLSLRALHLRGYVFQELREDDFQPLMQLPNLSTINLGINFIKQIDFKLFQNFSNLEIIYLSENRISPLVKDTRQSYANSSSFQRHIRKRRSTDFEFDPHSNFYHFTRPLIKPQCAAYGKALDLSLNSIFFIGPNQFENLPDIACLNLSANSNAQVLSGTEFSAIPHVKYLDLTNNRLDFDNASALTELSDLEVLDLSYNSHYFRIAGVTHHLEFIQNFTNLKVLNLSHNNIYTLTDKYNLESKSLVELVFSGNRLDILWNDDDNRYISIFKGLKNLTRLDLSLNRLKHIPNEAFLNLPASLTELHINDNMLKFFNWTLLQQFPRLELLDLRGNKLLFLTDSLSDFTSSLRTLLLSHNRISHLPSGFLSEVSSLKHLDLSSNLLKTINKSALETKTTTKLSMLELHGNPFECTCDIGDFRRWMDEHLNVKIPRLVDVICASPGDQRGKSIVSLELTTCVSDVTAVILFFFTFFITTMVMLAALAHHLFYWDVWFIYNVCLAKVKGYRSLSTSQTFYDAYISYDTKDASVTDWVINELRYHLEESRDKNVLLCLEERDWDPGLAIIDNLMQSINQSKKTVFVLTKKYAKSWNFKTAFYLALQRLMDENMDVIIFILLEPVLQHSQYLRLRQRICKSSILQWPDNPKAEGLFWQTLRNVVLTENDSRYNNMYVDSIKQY
Briefly: TLR8 inhibition reporter assay (HEK-Blue cells, SEAP reporter). In kind it is cell-based. Particulars: HEK-Blue cells overexpressing human TLR8, stimulated with R848 15.9 μM, 22 hour incubation. The procedure, abridged: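 Agonists used: gardiquimod 7.5 μM (TLR7), R848 15.9 μM (TLR8), ODN2006 5 nM (TLR9), added after 30 min room-temperature compound pre-treatment (0.05 nM–50 μM) of receptor-overexpressing HEK-Blue cells. SEAP reporter (NF-κB/AP-1 driven) read after 22 h at 37 °C; inhibition scaled between agonist+DMSO and reference-inhibitor wells.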

pIC50: −log10 of the molar value.

With `Cc1nc(-c2ccc(C3(O)CC4CCC(C3)N4C)c(F)c2)cc2c1cc(-c1ccc(S(C)(=O)=O)cc1)n2C` [Example 102, (1R,3r,5S)-3-(4-(1,4-dimethyl-2-(4-(methylsulfonyl)phenyl)-1H-pyrrolo[3,2-c]pyridin-6-yl)-2-fluorophenyl)-8-methyl-8-azabicyclo[3.2.1]octan-3-ol], the values for the pIC50 in experiment [1] and in experiment [2] were 6.90 and 6.00, respectively.
`Cc1nc(-c2ccc(C3(O)CCN(C(C)(C)C)CC3)c(F)c2)cc2c1cc(-c1ccc(S(C)(=O)=O)cc1)n2C` [Example 104, 1-(tert-butyl)-4-(4-(1,4-dimethyl-2-(4-(methylsulfonyl)phenyl)-1H-pyrrolo[3,2-c]pyridin-6-yl)-2-fluorophenyl)piperidin-4-ol]: the pIC50 was 6.79 in experiment [1] and 5.68 in experiment [2].
`Cc1nc(-c2ccc([C@@]3(O)CCN(C(C)C)C(C)(C)C3)c(F)c2)cc2c1cc(-c1ccc(S(C)(=O)=O)cc1)n2C` [Example 105, (R)-4-(4-(1,4-dimethyl-2-(4-(methylsulfonyl)phenyl)-1H-pyrrolo[3,2-c]pyridin-6-yl)-2-fluorophenyl)-1-isopropyl-2,2-dimethylpiperidin-4-ol]: the negative logarithm of the IC50 (pIC50) in experiment [1] was 7.28; in experiment [2] it was 6.70.
Take `Cc1nc(-c2ccc([C@]3(O)CCN(C(C)C)C(C)(C)C3)c(F)c2)cc2c1cc(-c1ccc(S(C)(=O)=O)cc1)n2C` [Example 106, (S)-4-(4-(1,4-dimethyl-2-(4-(methylsulfonyl)phenyl)-1H-pyrrolo[3,2-c]pyridin-6-yl)-2-fluorophenyl)-1-isopropyl-2,2-dimethylpiperidin-4-ol]: the pIC50 is 7.33 in experiment [1] and 6.15 in experiment [2].
For `Cc1nc(-c2ccc(C3(O)CCN(C(C)C)CC3)c(F)c2)cc2c1cc(-c1ccc(S(C)(=O)=O)cc1)n2C` [Example 107, 4-(4-(1,4-dimethyl-2-(4-(methylsulfonyl)phenyl)-1H-pyrrolo[3,2-c]pyridin-6-yl)-2-fluorophenyl)-1-isopropylpiperidin-4-ol], the pIC50 in experiment [1] is 7.74; in experiment [2], 5.57.
On the same counts, the results for `Cc1nc(-c2ccc(C3(O)CCN(C(C)(C)C)CC3)cc2F)cc2c1cc(-c1ccc(S(C)(=O)=O)cc1)n2C` [Example 108, 1-(tert-butyl)-4-(4-(1,4-dimethyl-2-(4-(methylsulfonyl)phenyl)-1H-pyrrolo[3,2-c]pyridin-6-yl)-3-fluorophenyl)piperidin-4-ol] are 6.69 and 5.82.
As to `Cc1nc(-c2ccc(C3(O)CCN(C(C)C)CC3)cc2F)cc2c1cc(-c1ccc(S(C)(=O)=O)cc1)n2C` [Example 109, 4-(4-(1,4-dimethyl-2-(4-(methylsulfonyl)phenyl)-1H-pyrrolo[3,2-c]pyridin-6-yl)-3-fluorophenyl)-1-isopropylpiperidin-4-ol], the figures for the negative-log IC50 (pIC50) in experiment [1] and in experiment [2] were 6.73 and 5.96, respectively.
The matching figures for `Cc1nc(C2CCN(C3CC4CCC(C3)N4CC(C)C)CC2)cc2c1cc(-c1ccc(S(C)(=O)=O)cc1)n2C` (stereo not drawn) [Example 114, 6-(1-(8-isobutyl-8-azabicyclo[3.2.1]octan-3-yl)piperidin-4-yl)-1,4-dimethyl-2-(4-(methylsulfonyl)phenyl)-1H-pyrrolo[3,2-c]pyridine]: 7.33 and < 4.30.
As to `Cc1nc(-c2ccc(CN3CCN(CCC(C)(C)O)CC3)cc2)cc2c1c(F)c(-c1ccc(S(C)(=O)=O)cc1)n2C` [Example 115, 4-(4-(4-(3-fluoro-1,4-dimethyl-2-(4-(methylsulfonyl)phenyl)-1H-pyrrolo[3,2-c]pyridin-6-yl)benzyl)piperazin-1-yl)-2-methylbutan-2-ol], the pIC50 in experiment [1] is 6.21; in experiment [2] it was 5.68.
With `Cc1nc(-c2ccc(CN3CCN(CCC(C)(C)O)CC3)cc2)cc2c1cc(-c1ccc(S(C)(=O)=O)cc1)n2C1CC1` [Example 116, 4-[4-[[4-[1-cyclopropyl-4-methyl-2-(4-methylsulfonylphenyl)pyrrolo[3,2-c]pyridin-6-yl]phenyl]methyl]piperazin-1-yl]-2-methyl-butan-2-ol], the pIC50 in experiment [1] is 7.23; in experiment [2], 4.72.
The matching figures for `CC(C)N1CCN(c2ccc(-c3cc4c(cc(-c5ccc(S(C)(=O)=O)cc5)n4C)c(C(C)(C)O)n3)cc2)CC1` [Example 118, 2-[6-[4-(4-isopropylpiperazin-1-yl)phenyl]-1-methyl-2-(4-methylsulfonylphenyl)pyrrolo[3,2-c]pyridin-4-yl]propan-2-ol]: 7.24 and 5.09.
On the same counts, the results for `CC(C)(O)CN1C2CCC1CN(Cc1ccc(-c3cc4c(cn3)cc(-c3ccc(S(C)(=O)=O)cc3)n4C3CC3)cc1)C2` [Example 121, 1-[3-[[4-[1-cyclopropyl-2-(4-methylsulfonylphenyl)pyrrolo[3,2-c]pyridin-6-yl]phenyl]methyl]-3,8-diazabicyclo[3.2.1]octan-8-yl]-2-methyl-propan-2-ol] are 6.89 and < 4.30.
On the same counts, the results for `Cc1nc(-c2ccc(CN3CCN(CC(C)(C)O)CC3)cc2)cc2c1c(F)c(-c1ccc(S(C)(=O)=O)cc1)n2C` [Example 122, 1-(4-(4-(3-fluoro-1,4-dimethyl-2-(4-(methylsulfonyl)phenyl)-1H-pyrrolo[3,2-c]pyridin-6-yl)benzyl)piperazin-1-yl)-2-methylpropan-2-ol] are 6.99 and 5.43.
For the compound `Cc1nc(-c2ccc(CN3CCN(CC(C)(C)O)CC3)cc2)cc2c1cc(-c1ccc(S(C)(=O)=O)cc1)n2C1CC1` [Example 123, 1-(4-(4-(1-cyclopropyl-4-methyl-2-(4-(methylsulfonyl)phenyl)-1H-pyrrolo[3,2-c]pyridin-6-yl)benzyl)piperazin-1-yl)-2-methylpropan-2-ol], the negative logarithm of the IC50 (pIC50) was 7.07 in experiment [1] and 4.75 in experiment [2].
The matching figures for `Cc1nc(-c2ccc(CN3CCN(CC(C)(C)O)CC3)cc2)cc2c1cc(-c1ccc(S(C)(=O)=O)cc1)n2C(F)F` [Example 124, 1-(4-(4-(1-(difluoromethyl)-4-methyl-2-(4-(methylsulfonyl)phenyl)-1H-pyrrolo[3,2-c]pyridin-6-yl)benzyl)piperazin-1-yl)-2-methylpropan-2-ol]: 6.35 and < 4.30.
